This is an account of results in article PMC6977966, “Inhibition of synucleinopathic seeding by rationally designed inhibitors” (eLife, 2020).

In one series the target is T1, α-syn fibrils (Homo sapiens, UniProt P37840).
T1 construct: made in house; host or cells: Escherichia coli BL21 (DE3) gold
Description: SPR binding to immobilized sonicated, filtered α-syn fibrils. The note with it: steady-state, 1:1 binding model, read-out: equilibrium dissociation constant Kd, α-syn fibril. The text has this: Computational modeling predicted that our candidate peptidic inhibitors bind α-syn fibril seeds and prevent their growth and propagation. To obtain direct evidence of binding of our inhibitors to α-syn fibril seeds, we used surface plasmon resonance (SPR) (Figure 2A). For the SPR experiments, α-syn fibrils were immobilized on a CM5 sensor chip using standard amine coupling chemistry. For immobilization, mature α-syn fibrils were sonicated to form short fragments (Figure 2—figure supplement 1A) and then filtered through a 0.22-micron filter to remove large aggregates, retaining short fibrils (Figure 2—figure supplement 1A). We confirmed that short fibrils generated by sonication retain the ability to seed monomeric α-syn using an in vitro-seeded-aggregation assay. […] We then immobilized the sonicated and filtered α-syn fibrils on a CM5 SPR chip and measured affinities of our peptide inhibitors to the fibrils. […] The equilibrium dissociation constant (Kd) was calculated by steady-state analysis, fitting the data with 1:1 binding model (Figure 2B). […]
Figure 2. […] (B) The equilibrium dissociation constant (Kd) was calculated by fitting the plot of steady-state inhibitor binding levels (SPR signal at steady-state) against inhibitor concentration with 1:1 binding model. […]
On the technique in general: SPR reads the build-up and loss of mass on a sensor chip optically.

For another series, the target named is T2, monomeric α-syn (Homo sapiens, UniProt P37840).
T2 construct: prevent aggregation of full-length α-syn in vitro; made in house; host or cells: Escherichia coli BL21 (DE3) gold
In words: SPR binding to immobilized α-syn monomers. To be noted: Biacore T200, CM5 chip amine coupling, inhibitor 0.5–500 μM, 30 μl/min, PBS pH 7.4, 25°C, steady-state, 1:1 binding model, mean ± SD, performed thrice, read-out: dissociation constant Kd, α-syn monomer.

The conditions of series [1]: ref Rodriguez et al., 2015; cited from earlier work. From the text:
Based on the atomic structure of NACore [68-GAVVTGVTAVA-78] as a template, we applied computational and structure-based approaches to design peptidic inhibitors. […] The inhibitors were designed using Rosetta-based computational modeling to bind to the tip of the steric-zipper protofilament, thereby capping the fibrils (Figure 1A). We identified four candidates; S37, S61, S62 and S71 that are computed to bind favo ...

Like-named read-outs stand apart in the source and are kept apart here. Where a SMILES comes first, the peptide text is derived from it. Where no end group is shown, it is not given here. [ ]: non-standard residue; d: D form. Sar = CNCC(=O)O

The term Kd denotes the equilibrium constant for the complex coming apart. On to `CC(C)[C@H](NC(=O)CN(C)C(=O)[C@@H](NC(=O)[C@@H](NC(=O)[C@@H](NC(=O)[C@H](C)NC(=O)[C@H](CCCNC(=N)N)NC(=O)[C@H](CCCNC(=N)N)NC(=O)[C@H](CCCNC(=N)N)NC(=O)[C@H](CCC(N)=O)NC(=O)[C@H](CCCNC(=N)N)NC(=O)[C@H](CCCNC(=N)N)NC(=O)[C@H](CCCCN)NC(=O)[C@H](CCCCN)NC(=O)[C@H](CCCNC(=N)N)NC(=O)CNC(=O)[C@@H](N)Cc1ccc(O)cc1)C(C)C)C(C)C)[C@@H](C)O)C(=O)N[C@H](C(=O)N[C@@H](C)C(=O)N[C@H](C(=O)N[C@@H](C)C(=O)N[C@@H](CCC(=O)O)C(=O)O)C(C)C)[C@@H](C)O` [S71] (H-YGRKKRRQRRRAVVT[Sar]VTAVAE-OH), for which the Kd at α-syn fibrils (Biacore T200, CM5 chip amine coupling, inhibitor 0.5–500 μM, 30 μl/min, PBS pH 7.4, 25°C, mean ± SD, performed thrice) was 10.9 ± 0.11 µM; at monomeric α-syn, 116 ± 11.7 µM.

Regarding “AVVTGVTAV [69-AVVTGVTAV-77, smaller 9-residue segment within NACore]”, the “aggregation rate relative to NACore” value in series [1] is given as “aggregates slower than NACore”.

For GAVVWGVTAVGRKKRRQRRRPQ [S61], the Kd on α-syn fibrils is 9.28 µM; at monomeric α-syn it was 62.8 ± 11.7 µM.
